Molecular target: CDK2/Cyclin E1 (Homo sapiens (Human), UniProt P24941)
Assay: CDK2/Cyclin E1 HTRF enzyme activity assay (Example A)
Type: biochemical
Details: 1 mM ATP
Protocol: Assays were conducted in white 384-well polystyrene plates in a final reaction volume of 8 μL. […] HTRF signals were read after 1 hour at room temperature on a PHERAstar FS plate reader (BMG Labtech). Data was analyzed with IDBS XLFit and GraphPad Prism 5.0 software using a three or four parameter dose response curve to determine IC50 for each compound.

Structure (SMILES) | IC50
CS(=O)(=O)N1CCC(Nc2ncc(C(F)(F)F)c(-c3cn(-c4ccc5nccnc5c4Br)cn3)n2)CC1 [Example 162, 4-(1-(5-Bromoquinoxalin-6-yl)-1H-imidazol-4-yl)-N-(1-(methylsulfonyl)piperidin-4-yl)-5-(trifluoromethyl)pyrimidin-2-amine] | ≤ 50 nM
CS(=O)(=O)N1CCC(Nc2ncc(C(F)(F)F)c(-c3cn(-c4ccc5cccnc5c4Br)cn3)n2)CC1 [Example 163, 4-(1-(8-Bromoquinolin-7-yl)-1H-imidazol-4-yl)-N-(1-(methyl-sulfonyl)piperidin-4-yl)-5-(trifluoromethyl)-pyrimidin-2-amine] | ≤ 50 nM
CS(=O)(=O)N1CCC(Nc2ncc(C(F)(F)F)c(-c3cn(-c4ccc5ncccc5c4Br)cn3)n2)CC1 [Example 164, 4-(1-(5-Bromoquinolin-6-yl)-1H-imidazol-4-yl)-N-(1-(methyl-sulfonyl)piperidin-4-yl)-5-(trifluoromethyl)-pyrimidin-2-amine] | ≤ 50 nM
CS(=O)(=O)N1CCC(Nc2ncc(C(F)(F)F)c(-c3cn(-c4ccc5cccnc5c4Cl)cn3)n2)CC1 [Example 165, 4-(1-(8-Chloroquinolin-7-yl)-1H-imidazol-4-yl)-N-(1-(methyl-sulfonyl)piperidin-4-yl)-5-(trifluoromethyl)-pyrimidin-2-amine] | ≤ 50 nM
Cc1c(-n2cnc(-c3nc(NC4CCN(S(C)(=O)=O)CC4)ncc3C(F)(F)F)c2)ccc2nccnc12 [Example 166, 4-(1-(5-Methylquinoxalin-6-yl)-1H-imidazol-4-yl)-N-(1-(methylsulfonyl)piperidin-4-yl)-5-(trifluoromethyl)pyrimidin-2-amine] | ≤ 50 nM
CS(=O)(=O)N1CCC(Nc2ncc(C(F)(F)F)c(-c3cn(-c4ccc5nccnc5c4C#N)cn3)n2)CC1 [Example 167, 6-(4-(2-((1-(Methylsulfonyl)piperidin-4-yl)amino)-5-(trifluoromethyl)pyrimidin-4-yl)-1H-imidazol-1-yl)quinoxaline-5-carbonitrile] | ≤ 50 nM
Cc1cc(C#N)ncc1-n1cnc(-c2nc(NC3CCN(S(C)(=O)=O)CC3)ncc2C(F)(F)F)c1 [Example 168, 4-Methyl-5-(4-(2-((1-(methylsulfonyl)piperidin-4-yl)amino)-5-(trifluoromethyl)pyrimidin-4-yl)-1H-imidazol-1-yl)picolinonitrile] | ≤ 50 nM
Cc1nn(C)cc1-n1cnc(-c2nc(NC3CCN(S(C)(=O)=O)CC3)ncc2C(F)(F)F)c1 [Example 169, 4-(1-(1,3-Dimethyl-1H-pyrazol-4-yl)-1H-imidazol-4-yl)-N-(1-(methylsulfonyl)piperidin-4-yl)-5-(trifluoromethyl)pyrimidin-2-amine] | ≤ 50 nM
CS(=O)(=O)N1CCC(Nc2ncc(C(F)(F)F)c(-c3ncn(-c4ccc(C#N)cc4Cl)c3Cl)n2)CC1 [Example 170, 3-Chloro-4-(5-chloro-4-(2-((1-(methylsulfonyl)piperidin-4-yl)amino)-5-(trifluoromethyl)pyrimidin-4-yl)-1H-imidazol-1-yl)benzonitrile] | ≤ 50 nM
CS(=O)(=O)N1CCC(Nc2ncc(Cl)c(-c3cn(-c4ccc(C#N)cc4Cl)cn3)n2)CC1 [Example 171, 3-Chloro-4-(4-(5-chloro-2-((1-(methylsulfonyl)-piperidin-4-yl)-amino)pyrimidin-4-yl)-1H-imidazol-1-yl)benzonitrile] | ≤ 50 nM
C[C@@H]1CN(S(C)(=O)=O)CC[C@@H]1Nc1ncc(C(F)(F)F)c(-c2cn(-c3ccc(C#N)cc3Cl)cn2)n1 [Example 172, 3-Chloro-4-(4-(2-(((3R,4S)-3-methyl-1-(methylsulfonyl)-piperidin-4-yl)-amino)-5-(trifluoro-methyl)pyrimidin-4-yl)-1H-imidazol-1-yl)benzonitrile] | ≤ 50 nM
CS(=O)(=O)N1CC[C@@H](Nc2ncc(C(F)(F)F)c(-c3cn(-c4ccc(C#N)cc4Cl)cn3)n2)[C@H](F)C1 [Example 173, 3-Chloro-4-(4-(2-(((3R,4R)-3-fluoro-1-(methylsulfonyl)-piperidin-4-yl)-amino)-5-(trifluoro-methyl)pyrimidin-4-yl)-1H-imidazol-1-yl)benzonitrile] | ≤ 50 nM
CC(=O)N(C)Cc1ccc(-n2cnc(-c3nc(NC4CCN(S(C)(=O)=O)CC4)ncc3C(F)(F)F)c2)c(Cl)c1 [Example 174, N-(3-Chloro-4-(4-(2-((1-(methylsulfonyl)piperidin-4-yl)amino)-5-(trifluoromethyl)pyrimidin-4-yl)-1H-imidazol-1-yl)benzyl)-N-methylacetamide] | ≤ 50 nM
CN(C)Cc1ccc(-n2cnc(-c3nc(NC4CCN(S(C)(=O)=O)CC4)ncc3C(F)(F)F)c2)c(Cl)c1 [Example 175, 4-(1-(2-Chloro-4-((dimethylamino)methyl)phenyl)-1H-imidazol-4-yl)-N-(1-(methylsulfonyl)piperidin-4-yl)-5-(trifluoromethyl)pyrimidin-2-amine] | ≤ 50 nM
CC1CN(Cc2ccc(-n3cnc(-c4nc(NC5CCN(S(C)(=O)=O)CC5)ncc4C(F)(F)F)c3)c(Cl)c2)C1 [Example 177, 4-(1-(2-Chloro-4-((3-methylazetidin-1-yl)methyl)phenyl)-1H-imidazol-4-yl)-N-(1-(methylsulfonyl)piperidin-4-yl)-5-(trifluoromethyl)pyrimidin-2-amine] | ≤ 50 nM
CS(=O)(=O)N1CCC(Nc2ncc(C(F)(F)F)c(-c3cn(-c4ccc(CN5CCCC5)cc4Cl)cn3)n2)CC1 [Example 178, 4-(1-(2-Chloro-4-(pyrrolidin-1-ylmethyl)phenyl)-1H-imidazol-4-yl)-N-(1-(methylsulfonyl)piperidin-4-yl)-5-(trifluoromethyl)pyrimidin-2-amine] | ≤ 50 nM
CS(=O)(=O)N1CCC(Nc2ncc(C(F)(F)F)c(-c3cn(-c4ccc(CN5CC6CCC5CC6)cc4Cl)cn3)n2)CC1 [Example 179, 4-(1-(4-((2-Azabicyclo[2.2.2]octan-2-yl)methyl)-2-chlorophenyl)-1H-imidazol-4-yl)-N-(1-(methylsulfonyl)piperidin-4-yl)-5-(trifluoromethyl)pyrimidin-2-amine] | ≤ 50 nM
CS(=O)(=O)N1CCC(Nc2ncc(C(F)(F)F)c(-c3cn(-c4ccc(CN5CC6CCC5C6)cc4Cl)cn3)n2)CC1 (centres unmarked) [Example 180, 4-(1-(4-((2-Azabicyclo[2.2.1]heptan-2-yl)methyl)-2-chlorophenyl)-1H-imidazol-4-yl)-N-(1-(methylsulfonyl)piperidin-4-yl)-5-(trifluoromethyl)pyrimidin-2-amine] | ≤ 50 nM
C[C@@]1(O)CCN(Cc2ccc(-n3cnc(-c4nc(NC5CCN(S(C)(=O)=O)CC5)ncc4C(F)(F)F)c3)c(Cl)c2)C1 [Example 181, (R)-1-(3-Chloro-4-(4-(2-((1-(methylsulfonyl)piperidin-4-yl)amino)-5-(trifluoromethyl)pyrimidin-4-yl)-1H-imidazol-1-yl)benzyl)-3-methylpyrrolidin-3-ol] | ≤ 50 nM
CNCc1ccc(-n2cnc(-c3nc(N[C@H]4CCN(S(C)(=O)=O)C[C@H]4C)ncc3C(F)(F)F)c2)c(Cl)c1 [Example 182, 4-(1-(2-Chloro-4-((methylamino)methyl)phenyl)-1H-imidazol-4-yl)-N-((3R,4S)-3-methyl-1-(methylsulfonyl)piperidin-4-yl)-5-(trifluoromethyl)pyrimidin-2-amine] | ≤ 50 nM

Source: patent US11427567B2, “Imidazolyl pyrimidinylamine compounds as CDK2 inhibitors” (Incyte Corporation, priority 2019, dated 2022)
